Measured values: ChEMBL document CHEMBL1156596, “Overcoming undesirable CYP1A2 inhibition of pyridylnaphthalene-type aldosterone synthase inhibitors: influence of heteroaryl derivatization on potency and selectivity” (J Med Chem, 2008)

Tests used:
[1] = biological target: T1, CYP17 (Homo sapiens, UniProt P05093); assay: Inhibition of human recombinant CYP17 expressed in Escherichia coli at 2 uM
T1 sequence (P05093 whole entry): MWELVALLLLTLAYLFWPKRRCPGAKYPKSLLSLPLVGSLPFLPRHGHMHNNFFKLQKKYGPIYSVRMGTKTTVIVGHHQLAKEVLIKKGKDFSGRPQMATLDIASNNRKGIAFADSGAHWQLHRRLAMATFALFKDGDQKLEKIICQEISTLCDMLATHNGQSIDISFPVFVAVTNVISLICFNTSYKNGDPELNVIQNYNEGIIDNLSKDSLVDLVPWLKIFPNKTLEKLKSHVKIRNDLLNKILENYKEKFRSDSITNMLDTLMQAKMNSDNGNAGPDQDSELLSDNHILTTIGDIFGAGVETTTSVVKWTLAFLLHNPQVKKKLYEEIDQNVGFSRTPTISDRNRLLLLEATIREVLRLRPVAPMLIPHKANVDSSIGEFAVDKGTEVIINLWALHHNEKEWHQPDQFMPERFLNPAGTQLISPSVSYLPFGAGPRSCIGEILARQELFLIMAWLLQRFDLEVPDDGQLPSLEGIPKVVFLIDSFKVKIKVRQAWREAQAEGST

[2] = biological target: T2, Cytochrome P450 11B1, mitochondrial (Homo sapiens, UniProt P15538)
T2 sequence (P15538 whole entry): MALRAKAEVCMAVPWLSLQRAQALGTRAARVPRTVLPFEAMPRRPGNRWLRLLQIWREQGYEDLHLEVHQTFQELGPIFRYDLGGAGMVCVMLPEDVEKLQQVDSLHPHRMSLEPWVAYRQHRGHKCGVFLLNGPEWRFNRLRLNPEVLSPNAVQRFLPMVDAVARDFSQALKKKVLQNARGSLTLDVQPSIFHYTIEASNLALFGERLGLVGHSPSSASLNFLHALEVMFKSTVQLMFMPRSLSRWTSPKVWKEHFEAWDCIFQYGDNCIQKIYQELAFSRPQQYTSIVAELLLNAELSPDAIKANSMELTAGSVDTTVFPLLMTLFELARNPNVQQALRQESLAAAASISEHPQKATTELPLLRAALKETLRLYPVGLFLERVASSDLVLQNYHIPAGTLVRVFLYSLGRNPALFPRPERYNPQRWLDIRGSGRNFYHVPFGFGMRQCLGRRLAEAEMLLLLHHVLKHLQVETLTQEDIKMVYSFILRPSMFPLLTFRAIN

inhibition at 2 µM [1]: 39% | IC50 [2]: 67 nM
SMILES: COc1ccc2cc(-c3cncc4ccccc34)ccc2c1
